One may read the vapor or sublimation pressure as the pressure of vapour in equilibrium with the condensed phase.

The values that follow come from the NIST ThermoML archive (doi:10.1016/j.jct.2010.09.005).

The nature of data set [1]: molar enthalpy of vaporization or sublimation. As to conditions: 298.15 K, vacuum sublimation.
The conditions of data set [2]: Crystal, Calculated from knudsen effusion weight loss.

Structures are written as SMILES. “And” between values parts separate entries of the source, which are not always exact repeats. Equal entries are not always repeated. ± gives the expanded uncertainty stated by the source.

Turning to `CC(=O)c1ccc(Cl)cc1Cl` [2',4'-dichloroacetophenone], the molar enthalpy in data set [1] (Crystal) was found to be 15.2 ± 0.669 kcal/mol.

Regarding `CC(=O)c1cc(Cl)ccc1Cl` [2',5'-dichloroacetophenone], the molar enthalpy in data set [1] (Liquid) is 15.8 ± 0.717 kcal/mol.

For the compound `CC(=O)c1ccc(Cl)c(Cl)c1` [3',4'-dichloroacetophenone], in data set [1] (Crystal), the molar enthalpy stood at 21.7 ± 0.765 kcal/mol. Besides, the “vapor or sublimation pressure” value was 0.0001703 ± 8.5e-06 kPa and 0.0001647 ± 8.3e-06 kPa and 0.0001655 ± 8.3e-06 kPa in data set [2] (293.25 K); 0.0002238 ± 1.1e-05 kPa and 0.0002145 ± 1.1e-05 kPa and 0.000213 ± 1.1e-05 kPa in data set [2] (295.17 K); 0.0002738 ± 1.4e-05 kPa and 0.0002832 ± 1.4e-05 kPa and 0.0002774 ± 1.4e-05 kPa in data set [2] (297.09 K); 0.0003484 ± 1.7e-05 kPa and 0.0003522 ± 1.8e-05 kPa and 0.0003546 ± 1.8e-05 kPa in data set [2] (299.21 K); 0.0004547 ± 2.3e-05 kPa and 0.0004516 ± 2.3e-05 kPa and 0.0004492 ± 2.3e-05 kPa in data set [2] (301.16 K); 0.0005694 ± 2.9e-05 kPa and 0.0005819 ± 2.9e-05 kPa and 0.0005785 ± 2.9e-05 kPa in data set [2] (303.08 K). Besides, the “vapor or sublimation pressure” value in data set [2] (305.19 K) is 0.0007368 ± 3.7e-05 kPa and 0.0007202 ± 3.6e-05 kPa and 0.0007224 ± 3.6e-05 kPa; in data set [2] (307.16 K), 0.000944 ± 4.7e-05 kPa and 0.0009302 ± 4.7e-05 kPa and 0.0009113 ± 4.6e-05 kPa; in data set [2] (309.09 K) it was 0.001174 ± 0.00012 kPa and 0.001186 ± 0.00012 kPa and 0.001176 ± 0.00012 kPa.
